The record followed here is US20230339886A1 (University of Florida Research Foundation, Incorporated, priority 2020, published 2023).

Structures are written as SMILES.

T1 sequence (P20393 with tags, fused parts or gaps DEL324-422): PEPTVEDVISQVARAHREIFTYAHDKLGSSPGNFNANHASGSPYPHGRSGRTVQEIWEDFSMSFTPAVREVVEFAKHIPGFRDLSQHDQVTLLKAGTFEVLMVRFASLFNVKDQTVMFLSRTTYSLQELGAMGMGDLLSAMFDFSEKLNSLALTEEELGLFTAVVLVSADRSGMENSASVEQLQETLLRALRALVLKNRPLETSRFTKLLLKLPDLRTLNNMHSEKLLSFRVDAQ
T1 sequence (Q9Y618 2335-2356 partner limits assumed): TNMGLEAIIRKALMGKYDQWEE

The first experiment has as its target T1, REV-ERBα LBD (human; residues 281-614 Δ324-422) (Homo sapiens, UniProt P20393, DEL324-422).
T1 construct: 6×Histag-REV-ERBα LBD (human; residues 281-614 Δ324-422); made in house; host or cells: Escherichia coli
The experiment is described as follows: TR-FRET corepressor interaction assay (REV-ERBα LBD, FITC-SMRT peptide). Type of experiment: biochemical. Particulars: FITC-SMRT peptide, read-out: REVERBα agonism (EC50 class, FRET assay). In short, it runs like this: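 Compound serial dilutions (in DMSO, triplicate) incubated 2 h at 4 °C; Tb donor excited at 340 nm, emission read at 495 nm and FITC acceptor at 520 nm. TR-FRET ratio (520/495 nm) plotted against ligand concentration and fitted to a sigmoidal dose-response curve.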
In general terms: TR-FRET usually uses a lanthanide donor and a delayed reading to cut background.
For the compound `N#CC1(Cn2cc([C@H](NS(=O)(=O)C3CC3)C(F)(F)F)c3cc(F)c(-c4ccccc4C(F)(F)F)cc32)CC1` [Example 476, N-[(1S)-1-[1-[(1-cyanocyclopropyl)methyl]-5-fluoro-6-[2-(trifluoromethyl)phenyl]indol-3-yl]-2,2,2-trifluoro-ethyl]cyclopropanesulfonamide], the EC50 was 500 to 3000 nM. Same read-out and setting: then `Cc1cn[nH]c1-c1cc2c(cc1F)c([C@H](NS(=O)(=O)C1CC1)C(F)(F)F)cn2CC(C)C` [Example 456, (S)—N-(2,2,2-trifluoro-1-(5-fluoro-1-isobutyl-6-(4-methyl-1H-pyrazol-5-yl)-1H-indol-3-yl)ethyl)cyclopropanesulfonamide], with 500 to 3000 nM; and `CC(C)(C)Cn1cc([C@H](NS(=O)(=O)C2CC2)C(F)F)c2ccc(-c3ccccc3C(F)(F)F)cc21` [Example 541, (S)—N-(2,2-difluoro-1-(1-neopentyl-6-(2-(trifluoromethyl)phenyl)-1H-indol-3-yl)ethyl)cyclopropanesulfonamide], with below 500 nM; and `CC(C)(C)Cn1cc([C@H](NS(=O)(=O)C2CC2)C(F)(F)F)c2ccc(-c3ccccc3C(F)(F)F)nc21` [Example 491, N-[(1S)-1-[1-(2,2-dimethylpropyl)-6-[2-(trifluoromethyl)phenyl]pyrrolo[2,3-b]pyridin-3-yl]-2,2,2-trifluoro-ethyl]cyclopropanesulfonamide], with below 500 nM. For the compound `CC(F)(F)Cn1cc([C@H](NS(=O)(=O)C2CCC2)C(F)(F)F)c2ccc(-c3ccccc3C(F)(F)F)cc21` [Example 442, (S)—N-(1-(1-(2,2-difluoropropyl)-6-(2-(trifluoromethyl)phenyl)-1H-indol-3-yl)-2,2,2-trifluoroethyl)cyclobutanesulfonamide], the concentration giving a half-maximal response (EC50) lay within 500 to 3000 nM. On the same count and under the same terms, then `CC(C)(C)Cn1cc([C@H](NS(=O)(=O)C2CC2(C)C)C(F)(F)F)c2ccc(-c3ccccc3C(F)(F)F)cc21` (stereo partly drawn) [Example 426, 2,2-dimethyl-N—((S)-2,2,2-trifluoro-1-(1-neopentyl-6-(2-(trifluoromethyl)phenyl)-1H-indol-3-yl)ethyl)cyclopropane-1-sulfonamide], with 500 to 3000 nM. Still for that read-out and setting: the same measure for `CCC(NS(=O)(=O)C1CCC1)c1cn(CC(C)(C)C)c2cc(-c3ccccc3C(F)(F)F)ccc12` (centres unmarked) [Example 425, N-(1-(1-neopentyl-6-(2-(trifluoromethyl)phenyl)-1H-indol-3-yl)propyl)cyclobutanesulfonamide]: below 500 nM; for `CC(C)(C)Cn1cc([C@H](NS(=O)(=O)C2CC2)C(F)F)c2ccc(-c3ccc(F)cc3C(F)(F)F)cc21` [Example 551, (S)—N-(2,2-difluoro-1-(6-(4-fluoro-2-(trifluoromethyl)phenyl)-1-neopentyl-1H-indol-3-yl)ethyl)cyclopropanesulfonamide]: below 500 nM. `CC(C)(C)Cn1cc([C@H](NS(=O)(=O)C2CCC2)C(F)(F)F)c2cc(F)c(-c3c(F)cccc3C(F)(F)F)cc21` [Example 511, N-((1S)-2,2,2-trifluoro-1-(5-fluoro-6-(2-fluoro-6-(trifluoromethyl)phenyl)-1-neopentyl-1H-indol-3-yl)ethyl)cyclobutanesulfonamide]: the EC50 lay within 500 to 3000 nM.

Take `COC(C)(C)Cn1cc([C@H](NS(=O)(=O)C2CC2)C(F)(F)F)c2cc(F)c(-c3ccccc3C(F)(F)F)cc21` [Example 475, N-[(1S)-2,2,2-trifluoro-1-[5-fluoro-1-(2-methoxy-2-methyl-propyl)-6-[2-(trifluoromethyl)phenyl]indol-3-yl]ethyl]cyclopropanesulfonamide]: the EC50 was below 500 nM. In the case of `CC(C)(C)Cn1cc([C@H](NS(=O)(=O)C2CC2)C(F)(F)F)c2cc(F)c(-c3cscn3)cc21` [Example 465, N-[(1S)-1-[1-(2,2-dimethylpropyl)-5-fluoro-6-thiazol-4-yl-indol-3-yl]-2,2,2-trifluoro-ethyl]cyclopropanesulfonamide], the EC50 lay within 500 to 3000 nM.

The same experiment, now with this note: Table 2, read-out: REVERBα agonism (EC50 class, FRET assay).
`CCC(C)C(=O)n1cc(CNS(=O)(=O)N(C)C)c2ccc(-c3ccncc3)cc21` (centres unmarked) [Example 188, 1-(3-{[(dimethylsulfamoyl)amino]methyl}-6-(pyridin-4-yl)-1H-indol-1-yl)-2-methylbutan-1-one]: the EC50 was below 500 nM. On the same count and under the same terms, the same measure for `CC(C)C(=O)n1cc(CCNS(=O)(=O)N(C)C)c2ccc(-c3ccncc3)cc21` [Compound 43, 1-(3-{2-[(dimethylsulfamoyl)amino]ethyl}-6-(pyridin-4-yl)-1H-indol-1-yl)-2-methylpropan-1-one]: below 500 nM; for `CN(C)C(=O)n1cc(CCNS(=O)(=O)N(C)C)c2ccc(-c3ccncc3)cc21` [Example 194, 3-(2-((N,N-dimethylsulfamoyl)amino)ethyl)-N,N-dimethyl-6-(pyridin-4-yl)-1H-indole-1-carboxamide]: above 3000 nM.

With `CC(C)(C)Cn1cc([C@H](NS(=O)(=O)C(C)(C)C)C(F)(F)F)c2cc(F)c(-c3ccccc3C(F)(F)F)cc21` [Example 366, (S)-2-methyl-N-(2,2,2-trifluoro-1-(5-fluoro-1-neopentyl-6-(2-(trifluoromethyl)phenyl)-1H-indol-3-yl)ethyl)propane-2-sulfonamide], the EC50 lay in the range of 500 to 3000 nM.

Regarding `CC(C)Cn1cc(CCNS(=O)(=O)N(C)C)c2ccc(OC(C)C)cc21` [Example 118, N′-{2-[6-isopropoxy-1-(2-methylpropyl)-1H-indol-3-yl]ethyl}-N,N-dimethylsulfuric diamide], the EC50 was in the range of 500 to 3000 nM. Consider `CC(C)(C)Cc1cn(CCNS(=O)(=O)C2CC2)c2ccc(-c3cccc(F)c3Cl)cc12` [Example 228, N-(2-(5-(2-chloro-3-fluorophenyl)-3-neopentyl-1H-indol-1-yl)ethyl)cyclopropane sulfonamide], for which the EC50 is below 500 nM. The same measure, in the same setting: then `CC(C)Cn1cc(-c2cccc(NS(=O)(=O)C(C)C)c2)c2ccc(-c3ccccc3)cc21` [Example 83, N-(3-(1-isobutyl-6-phenyl-1H-indol-3-yl)phenyl)propane-2-sulfonamide], with above 3000 nM. For the compound `CC(C)Cn1cc(C(NS(=O)(=O)C2CC2)C(F)(F)F)c2ccc(-c3ccccc3C(F)(F)F)cc21` (centres unmarked) [Example 208], the EC50 was below 500 nM.

As to `CC(C)Cn1cc(CCNS(=O)(=O)N(C)C)c2ccc(N(C)C)cc21` [Example 113, N′-{2-[6-N,N-dimethylamino-1-(2-methylpropyl)-1H-indol-3-yl]ethyl}-N,N-dimethylsulfuric diamide], the EC50 was in the range of 500 to 3000 nM. As to `CC(C)(C)Cn1cc([C@H](NS(=O)(=O)C2CCC2)C(F)(F)F)c2cc(F)c(-c3ccccc3C(F)(F)F)cc21` [Example 374, (S)—N-(2,2,2-trifluoro-1-(5-fluoro-1-neopentyl-6-(2-(trifluoromethyl)phenyl)-1H-indol-3-yl)ethyl)cyclobutanesulfonamide], the EC50 was below 500 nM. The same measure, in the same setting: the same measure for `CC(C)Cn1cc(CCNS(=O)(=O)N(C)C)c2ccc(-c3cccc(-c4ccccc4)c3)cc21` [Example 55, N-{2-[6-([1,1′-biphenyl]-3-yl)-1-(2-methylpropyl)-1H-indol-3-yl]ethyl}-N,N-dimethyl-sulfuric diamide]: 500 to 3000 nM; for `CN(C)S(=O)(=O)NCCc1cn(Cc2cccnc2)c2cc(Br)ccc12` [Example 163, [(2-{6-bromo-1-[(pyridin-3-yl)methyl]-1H-indol-3-yl}ethyl)sulfamoyl]dimethylamine]: 500 to 3000 nM. Same read-out and setting: then `CC(C)Cn1cc(CNS(=O)(=O)CC(C)C)c2ccc(-c3ccncc3)cc21` [Compound 245], with below 500 nM; and `CC(C)(C)Cn1cc([C@H](NS(=O)(=O)C2CC2)C(F)(F)F)c2ccc(-c3ncccn3)cc21` [Example 382, (S)—N-(2,2,2-trifluoro-1-(1-neopentyl-6-(pyrimidin-2-yl)-1H-indol-3-yl)ethyl)cyclopropanesulfonamide], with 500 to 3000 nM. The same measure, in the same setting: the same measure for `CC(C)Cn1cc(CCNS(=O)(=O)N(C)C)c2ccc(OCc3ccccc3)cc21` [Example 115, N′-{2-[6-benzyloxy-1-(2-methylpropyl)-1H-indol-3-yl]ethyl}-N,N-dimethylsulfuric diamide]: 500 to 3000 nM; for `CN(C)S(=O)(=O)NCCc1cn(C(=O)c2cc(Cl)cc(Cl)c2)c2cc(-c3ccncc3)ccc12` [Example 151, N′-{2-[6-(pyridin-4-yl)-1-(3,5-dichlorobenzoyl)-1H-indol-3-yl]ethyl}-N,N-dimethylsulfuric diamide]: above 3000 nM. As to `CN(C)S(=O)(=O)NCc1cn(C(=O)C(C)(C)C)c2cc(-c3ccncc3)ccc12` [Example 186, 1-(3-{[(dimethylsulfamoyl)amino]methyl}-6-(pyridin-4-yl)-1H-indol-1-yl)-2,2-dimethylpropan-1-one], the EC50 is 500 to 3000 nM. For `CC(C)(C)Cn1cc(CC2(NS(=O)(=O)C3CC3)CC2)c2ccc(-c3ccccc3C(F)(F)F)cc21` [Example 406, N-(1-((1-neopentyl-6-(2-(trifluoromethyl)phenyl)-1H-indol-3-yl)methyl)cyclopropyl)cyclopropanesulfonamide], the EC50 was above 3000 nM. For the compound `CN(C)S(=O)(=O)NCCc1cn(Cc2cccc([N+](=O)[O-])c2)c2cc(-c3ccncc3)ccc12` [Example 148, N-{2-[6-(pyridin-4-yl)-1-(3-nitrobenzyl)-1H-indol-3-yl]ethyl}-N,N-dimethylsulfuric diamide], the 50% effective concentration (EC50) was 500 to 3000 nM. Same read-out and setting: the same measure for `O=S(=O)(NCc1cn(CC(C(F)(F)F)C(F)(F)F)c2cc(-c3ccncc3Cl)c(F)cc12)C1CC1` [Compound 284]: 500 to 3000 nM. On the same count and under the same terms, then `CC(C)Cn1cc(C(NS(=O)(=O)N(C)C)C(F)(F)F)c2ccc(-c3ccccc3C(F)(F)F)cc21` (centres unmarked) [Example 223, dimethyl({2,2,2-trifluoro-1-[1-(2-methylpropyl)-6-[2-(trifluoromethyl)phenyl]-1H-indol-3-yl]ethyl}sulfamoyl)amine], with below 500 nM.

The term EC50 denotes the concentration giving half of the maximal effect.
